Test results published in patent US6218406A, “Farnesyl transferase inhibitors, their preparation, the pharmaceutical compositions which contain them and their use in the preparation of medicaments” (Aventis Pharma S.A., priority 1996, dated 2001).

These compounds were tested against farnesyl transferase (Homo sapiens, UniProt P49354+P49356) (assay: Farnesyl transferase inhibition, [3H]-farnesylation of biotinylated K-ras C-terminal peptide (SPA assay)). Conditions: K-Ras substrate; 60 min at 37° C.; mean of two IC50 values; read-out: In vitro inhibitory activity (K-Ras) IC50.
Format: biochemical

| Structure (SMILES) | IC50 |
| --- | --- |
| C=C(C(=O)N1C[C@@H]2[C@]3(c4ccc5c(c4)OCCO5)CC[C@@H](c4ccccc43)[C@]2(C(=O)NCc2cccs2)C1)c1ccccc1OC (relative stereo) [Example 36, (3aRS,4SR,9SR,9aRS)-9-(2,3-dihydro-1,4-benzodioxin-6-yl)-4,9-ethano-2-[2-(2-methoxyphenyl)propenoyl]-2,3,3a,4,9,9a-hexahydro-1H-benzo[f]isoindole-3a-N-(2-thienylmethyl)carboxamide] | 120 nM |
| C=C(C(=O)N1C[C@@H]2[C@]3(c4cccc(C#N)c4)CC[C@@H](c4ccccc43)[C@]2(C(=O)OC)C1)c1ccccc1OC (racemic) [Example 96, methyl (3aRS,4SR,9SR,9aRS)-9-(3-cyanophenyl)-4,9-ethano-2-[2-(2-methoxyphenyl)propenoyl]-2,3,3a,4,9,9a-hexahydro-1H-benzo[f]isoindole-3a-carboxylate] | 955 nM |
| C=C(C(=O)N1C[C@@H]2[C@]3(c4ccc(C)cc4)CC[C@@H](c4ccccc43)[C@]2(C(=O)NOCc2ccccc2)C1)c1ccccc1OC (racemic) [Example 14, benzyl (3aRS,4SR,9SR,9aRS)-4,9-ethano-2-[2-(2-methoxyphenyl)propenoyl]-9-(4-methylphenyl)-2,3,3a,4,9,9a-hexahydro-1H-benzo[f]isoindole-3a-hydroxamate] | 210 nM |
| C=C(C(=O)N1C[C@H]2[C@@]3(c4ccc(C)cc4)CC[C@H](c4ccccc43)[C@@]2(C(=O)NCc2cccnc2)C1)c1ccccc1OC (single isomer, unassigned) [Example 19, Levorotatory Enantiomer of (3aRS,4SR,9SR,9aRS)-4,9-ethano-2-[2-(2-methoxyphenyl)propenoyl]-9-(4-methylphenyl)-2,3,3a,4,9,9a-hexahydro-1H-benzo[f]isoindole-3a-N-(3-pyridylmethyl)carboxamide] | 181 nM |
| C=C(C(=O)N1C[C@H]2[C@@]3(c4ccc(C)cc4)CC[C@H](c4ccccc43)[C@@]2(C(=O)NCc2ccncc2)C1)c1ccccc1OC (relative stereo) [Example 20, (3aRS,4SR,9SR,9aRS)-4,9-ethano-2-[2-(2-methoxyphenyl)propenoyl]-9-(4-methylphenyl)-2,3,3a,4,9,9a-hexahydro-1H-benzo[f]isoindole-3a-N-(4-pyridylmethyl)carboxamide] | 140 nM |
| C=C(C(=O)N1C[C@H]2[C@@]3(c4ccc(C)cc4)CC[C@H](c4ccccc43)[C@@]2(C(=O)NCc2ccc[n+]([O-])c2)C1)c1ccccc1OC (relative stereo) [Example 26, (3aRS,4SR,9SR,9aRS)-4,9-ethano-2-[2-(2-methoxyphenyl)-propenoyl]-9-(4-methylphenyl)-2,3,3a,4,9,9a-hexahydro-1H-benzo[f]isoindole-3a-N-(N-oxo-3-pyridyl)methylcarboxamide] | 145 nM |

Stronger by IC50, values ahead:

| IC50 | Structure (SMILES) |
| --- | --- |
| 40 nM | C=C(C(=O)N1C[C@@H]2[C@]3(c4ccc(F)cc4)CC[C@@H](c4ccccc43)[C@]2(C(=O)O)C1)c1ccccc1OC (racemic) [Example 65, (3aRS,4SR,9SR,9aRS)-4,9-ethano-9-(4-fluorophenyl)-2-[2-(2-methoxyphenyl)propenoyl]-2,3,3a,4,9,9a-hexahydro-1H-benzo[f]isoindole-3a-carboxylic acid] |
| 45 nM | C=C(C(=O)N1C[C@@H]2[C@@]3(c4ccc(C)cc4)CC[C@@H](c4ccccc43)[C@]2(C(=O)O)C1)c1ccccc1OC (racemic) [Example 2, (3aRS,4SR,9RS,9aRS)-4,9-ethano-2-[2-(2-methoxyphenyl)propenoyl]-9-(4-methylphenyl)-2,3,3a,4,9,9a-hexahydro-1H-benzo[f]isoindole-3a-carboxylic Acid] |
| 20 nM | C=C(C(=O)N1C[C@@H]2[C@]3(c4ccc(Cl)cc4)CC[C@@H](c4ccccc43)[C@]2(C(=O)O)C1)c1ccccc1OC (racemic) [Example 53, (3aRS,4SR,9SR,9aRS)-9-(4-chlorophenyl)-4,9-ethano-2-[2-(2-methoxyphenyl)propenoyl]-2,3,3a,4,9,9a-hexahydro-1H-benzo[f]isoindole-3a-carboxylic Acid] |
